We go through 43 substances from patent US11214803B2, “Modulators of YAP1 expression” (Ionis Pharmaceuticals, Inc., priority 2019, dated 2022).

For the series, the system named is Yap1 mRNA. Put plainly: Antisense inhibition of human Yap1 in A-431 cells by cEt gapmers, single dose (Example 3, RTS36584). Type of series: cell-based. Put shortly:
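A-431 cells were treated by free uptake with 2,000 nM modified oligonucleotide (3-10-3 cEt gapmers, full phosphorothioate, 5-methylcytosines) for about 48 hours. Yap1 mRNA was quantified by real-time RT-PCR, normalized to RiboGreen total RNA, and expressed as % of untreated control; asterisked values mark oligonucleotides targeting the amplicon region.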

Setting [1] is: Table 12, A-431 cells, 5,000 cells per well, free uptake, 2,000 nM modified oligonucleotide, approx. 48 hours, RTS36584, normalized to RIBOGREEN, Yap1 mRNA relative to untreated control cells.
[2] abbreviates: Table 29, Yap1 mRNA as percent of untreated control, 3-10-3 cEt gapmers targeting SEQ ID NO.: 1, and 2.
[3] abbreviates: Table 8, A-431 cells, 5,000 cells per well, free uptake, 2,000 nM, approximately 48 hours, RTS36584, normalized to RIBOGREEN, Yap1 mRNA relative to untreated control cells.
Setting [4] is: Table 11, A-431 cells, 5,000 cells per well, free uptake, 2,000 nM oligonucleotide, approx. 48 hours, primer probe set RTS36584, Yap1 mRNA normalized to RIBOGREEN, percent of untreated control.
[5] abbreviates: Table 34, Yap1 mRNA as percent of untreated control, 3-10-3 cEt gapmers targeting SEQ ID NO: 1 and 2, single dose.
The mark [6] stands for this setting: Table 26, Yap1 mRNA by 3-10-3 cEt gapmers targeting SEQ ID NO.: 1, and 2, percent of untreated control.
Where [7] appears, read: Table 10, A-431 cells, 5,000 cells per well, free uptake, 2,000 nM oligonucleotide, approx. 48 hours, primer probe set RTS36584, Yap1 mRNA normalized to RIBOGREEN, percent of untreated control.
Where [8] appears, read: Table 28, Yap1 mRNA as percent of untreated control, 3-10-3 cEt gapmers targeting SEQ ID NO.: 1, and 2.
Setting [9] is: Table 13, A-431 cells, 5,000 cells per well, free uptake, 2,000 nM modified oligonucleotide, approx. 48 hours, RTS36584, normalized to RIBOGREEN, Yap1 mRNA relative to untreated control cells.
The mark [10] stands for this setting: Table 35, Yap1 mRNA as percent of untreated control, 3-10-3 cEt gapmers targeting SEQ ID NO: 1 and 2, single dose.

Strand notation (5' to 3'): a small letter for the sugar, then the base; units joined by * are phosphorothioate-linked, units joined directly phosphodiester-linked; [ ] holds rarer units or linkages, { } end groups; capitals alone tell only the bases. k = constrained ethyl (cEt); [5mC] = 5-methylcytosine; d = 2'-deoxy (DNA)

With “958729 (antisense kG*kT*k[5mC]*dA*dG*dT*dT*dA*dT*d[5mC]*d[5mC]*dT*dA*kT*k[5mC]*kT) [Compound 958729]”, under setting [1], the “YAP1 (% UTC)” value is listed as 4 % UTC.
For the substance “1075119 (kA*kG*kG*dG*dA*dA*dT*dA*dT*dG*dT*dT*dA*kA*kT*k[5mC]; antisense) [compound 1075119]”, under setting [2], the “YAP1 (% UTC)” value was 8 % UTC.
For the substance “958359 (antisense kT*kG*k[5mC]*dA*dT*d[5mC]*dA*dG*dT*dA*d[5mC]*dT*dG*kG*k[5mC]*k[5mC]) [Compound 958359]”, under setting [3], the “YAP1 (% UTC)” value came out at 117 % UTC.
In the case of “958713 (antisense kT*kG*k[5mC]*dT*dA*dG*dA*dG*dG*d[5mC]*dT*dG*dT*kT*k[5mC]*k[5mC]) [Compound 958713]”, under setting [4], the “YAP1 (% UTC)” value is 55 % UTC.
Regarding “958384 (antisense k[5mC]*k[5mC]*kT*dT*d[5mC]*d[5mC]*dT*d[5mC]*dT*dG*d[5mC]*dG*d[5mC]*kG*k[5mC]*k[5mC]) [Compound 958384]”, under setting [3], the “YAP1 (% UTC)” value is 131 % UTC.
On to “1075892 (antisense k[5mC]*kA*k[5mC]*d[5mC]*dA*dA*dT*dA*d[5mC]*d[5mC]*dA*dA*dA*kG*kT*k[5mC]) [compound 1075892]”, for which, under setting [5], the “YAP1 (% UTC)” value came out at 54 % UTC.
In the case of “958367 (antisense k[5mC]*kT*kA*dG*d[5mC]*dT*dT*dG*dG*dT*dG*dG*d[5mC]*kA*kG*k[5mC]) [Compound 958367]”, the “YAP1 (% UTC)” value under setting [3] came out at 105 % UTC.
As for “1074412 (k[5mC]*kT*kG*dT*dG*dA*dA*dA*dG*dA*dG*dG*dT*k[5mC]*kA*kG; antisense) [compound 1074412]”, under setting [6], the “YAP1 (% UTC)” value was 55 % UTC.
For “958768 (antisense kG*kT*kG*d[5mC]*dA*dA*dG*d[5mC]*dA*dG*dG*dT*dT*k[5mC]*k[5mC]*k[5mC]) [Compound 958768]”, under setting [4], the “YAP1 (% UTC)” value is 17 % UTC.
In the case of “958507 (kG*kA*kG*d[5mC]*dA*dG*dA*dT*dA*dA*dT*d[5mC]*dG*kA*kG*kA; antisense) [Compound 958507]”, under setting [7], the “YAP1 (% UTC)” value turned out to be 6 % UTC.
As to “958423 (antisense kG*kA*kT*d[5mC]*dA*dA*d[5mC]*dA*dT*dG*d[5mC]*dT*dA*kA*k[5mC]*kA) [Compound 958423]”, the “YAP1 (% UTC)” value under setting [3] was found to be 51 % UTC.
“1074158 (kG*kA*kG*d[5mC]*dG*dA*dG*dG*dG*d[5mC]*dT*dA*d[5mC]*kG*k[5mC]*k[5mC]; antisense) [compound 1074158]”: the “YAP1 (% UTC)” value under setting [8] amounted to 72 % UTC.
Take “958773 (antisense kA*kG*k[5mC]*dT*dG*dG*dT*dA*dG*dG*dG*d[5mC]*dA*kA*kG*kA) [Compound 958773]”: under setting [4], the “YAP1 (% UTC)” value stood at 43 % UTC.
Regarding “958802 (antisense kA*kG*kA*dT*dA*dA*dT*d[5mC]*dA*dT*d[5mC]*d[5mC]*dT*k[5mC]*kA*kA) [Compound 958802]”, the “YAP1 (% UTC)” value under setting [7] is recorded as 25 % UTC.
In the case of “1074734 (kT*kG*k[5mC]*d[5mC]*dA*dG*dG*dT*dA*dT*d[5mC]*dA*d[5mC]*kA*kG*kT; antisense) [compound 1074734]”, the “YAP1 (% UTC)” value under setting [8] is 51 % UTC.
On the same count and under the same terms, the figure for “1074510 (kA*kT*kA*d[5mC]*dA*dT*dT*d[5mC]*d[5mC]*dA*d[5mC]*dT*dA*k[5mC]*k[5mC]*kA; antisense) [compound 1074510]” is 10 % UTC; for “1074478 (k[5mC]*k[5mC]*kT*dA*dG*dG*dT*dT*d[5mC]*d[5mC]*dG*dA*d[5mC]*kA*kA*kA; antisense) [compound 1074478]” it is 69 % UTC; for “1076046 (k[5mC]*kT*kT*dA*dA*dA*dT*dG*dG*dT*dG*d[5mC]*dA*kA*kT*kA; antisense) [compound 1076046]” it is 28 % UTC.
For “1075023 (antisense kG*kT*kA*dT*dT*dT*dA*d[5mC]*dA*dA*d[5mC]*d[5mC]*dT*kA*kG*kA) [compound 1075023]”, the “YAP1 (% UTC)” value under setting [2] worked out at 18 % UTC.
Take “958495 (kG*kG*kT*d[5mC]*dA*dT*dT*dA*dT*dG*dT*dG*dA*k[5mC]*kT*kA; antisense) [Compound 958495]”: the “YAP1 (% UTC)” value under setting [9] amounted to 56 % UTC.
Take “958757 (antisense kG*kT*kG*dA*dT*d[5mC]*dT*dG*d[5mC]*dA*d[5mC]*dA*dT*kT*kG*kT) [Compound 958757]”: under setting [7], the “YAP1 (% UTC)” value turned out to be 5 % UTC.
As for “958746 (antisense kG*kT*kT*dA*dT*d[5mC]*d[5mC]*dT*d[5mC]*dT*dA*dT*dA*kG*kT*k[5mC]) [Compound 958746]”, for the setting “Table 9, A-431 cells, 5,000 cells per well, free uptake, 2,000 nM, approximately 48 hours, RTS36584, normalized to RIBOGREEN, Yap1 mRNA relative to untreated control cells”, the “YAP1 (% UTC)” value turned out to be 22 % UTC.
Take “1076213 (kT*k[5mC]*kT*d[5mC]*dA*dA*dG*dG*dA*dA*dT*dT*dG*k[5mC]*k[5mC]*kT; antisense) [compound 1076213]”: under setting [10], the “YAP1 (% UTC)” value was determined as 27 % UTC.
Turning to “958483 (antisense kG*kA*kG*dG*dA*dT*dT*dA*dA*dA*dG*dT*dA*kT*k[5mC]*kT) [Compound 958483]”, the “YAP1 (% UTC)” value under setting [4] turned out to be 17 % UTC.
On to “958777 (antisense kG*kT*kA*dA*d[5mC]*dT*dG*dT*dT*dT*d[5mC]*dT*dA*kG*kG*kT) [Compound 958777]”, for which, under setting [7], the “YAP1 (% UTC)” value stood at 10 % UTC.
On to “958440 (antisense kT*kG*k[5mC]*dG*d[5mC]*d[5mC]*d[5mC]*d[5mC]*dG*dG*d[5mC]*dT*d[5mC]*k[5mC]*kA*k[5mC]) [Compound 958440]”, for which the “YAP1 (% UTC)” value under setting [9] is on record as 54 % UTC.
Turning to “1076333 (antisense k[5mC]*kT*kA*dT*dA*dA*dG*dG*dA*dA*dT*dG*dG*k[5mC]*kA*kA) [compound 1076333]”, the “YAP1 (% UTC)” value (Table 27, Yap1 mRNA by 3-10-3 cEt gapmers targeting SEQ ID NO.: 1, and 2, percent of untreated control) came to 97 % UTC.
Take “958600 (kG*kT*kA*dG*dA*dT*d[5mC]*dT*dA*dA*dG*dA*dA*kG*k[5mC]*k[5mC]; antisense) [Compound 958600]”: under setting [9], the “YAP1 (% UTC)” value is reported as 8 % UTC.
Consider “958602 (kT*kG*k[5mC]*d[5mC]*dA*dT*dG*dT*dT*d[5mC]*d[5mC]*dA*dT*kA*kT*kA; antisense) [Compound 958602]”, for which, under setting [7], the “YAP1 (% UTC)” value was determined as 16 % UTC.
Regarding “1075733 (k[5mC]*kA*kA*dT*dA*dA*d[5mC]*d[5mC]*dT*d[5mC]*dG*dA*dG*kT*kG*k[5mC]; antisense) [compound 1075733]”, the “YAP1 (% UTC)” value under setting [10] amounted to 28 % UTC.
As for “958494 (kT*kA*kG*d[5mC]*dA*d[5mC]*dT*dA*dG*dG*dA*dG*dG*kA*kA*kA; antisense) [Compound 958494]”, the “YAP1 (% UTC)” value under setting [1] came to 28 % UTC.
With “958770 (antisense kA*k[5mC]*kA*dG*dA*dG*d[5mC]*dG*dG*dT*dG*d[5mC]*dA*k[5mC]*k[5mC]*k[5mC]) [Compound 958770]”, the “YAP1 (% UTC)” value under setting [9] was determined as 64 % UTC.
For “1075823 (kT*kA*kT*dT*dA*dG*dA*dG*dG*dT*dT*d[5mC]*d[5mC]*kA*kG*kG; antisense) [compound 1075823]”, the “YAP1 (% UTC)” value under setting [2] amounted to 30 % UTC.
In the case of “1074348 (antisense kG*kT*kA*d[5mC]*dT*d[5mC]*dT*d[5mC]*dA*dT*d[5mC]*dT*d[5mC]*kG*kA*kG) [compound 1074348]”, under setting [6], the “YAP1 (% UTC)” value came out at 100 % UTC.
For the substance “958633 (antisense kT*kG*kT*d[5mC]*dA*dT*d[5mC]*dA*dG*dG*dT*dT*dA*kA*kG*kT) [Compound 958633]”, the “YAP1 (% UTC)” value under setting [4] was 76 % UTC.
On to “1075759 (k[5mC]*k[5mC]*kT*dT*dA*dT*dA*dA*dA*dT*dT*dA*dT*kG*kA*k[5mC]; antisense) [compound 1075759]”, for which, under setting [2], the “YAP1 (% UTC)” value is listed as 44 % UTC.
As to “1075573 (antisense kA*kA*kG*dG*dA*dA*d[5mC]*d[5mC]*dT*dT*d[5mC]*dT*dG*kT*kG*kT) [compound 1075573]”, the “YAP1 (% UTC)” value under setting [10] is given as 72 % UTC.
On to “1074388 (kG*kA*k[5mC]*dT*dT*dG*dG*d[5mC]*dA*dT*d[5mC]*dA*dG*k[5mC]*kT*k[5mC]; antisense) [compound 1074388]”, for which the “YAP1 (% UTC)” value under setting [5] amounted to 16 % UTC.
On to “958508 (kG*kA*kG*dA*dG*d[5mC]*dA*dG*dA*dT*dA*dA*dT*k[5mC]*kG*kA; antisense) [Compound 958508]”, for which, under setting [4], the “YAP1 (% UTC)” value is 7 % UTC.
Turning to “1074927 (antisense kT*kA*k[5mC]*dA*dA*d[5mC]*dA*dG*dG*d[5mC]*d[5mC]*dT*dG*k[5mC]*kA*kA) [compound 1074927]”, the “YAP1 (% UTC)” value under setting [2] is listed as 74 % UTC.
Regarding “958669 (kG*k[5mC]*kT*dA*dT*d[5mC]*dT*dT*dT*dG*dG*dA*dT*k[5mC]*k[5mC]*kA; antisense) [Compound 958669]”, the “YAP1 (% UTC)” value under setting [1] is 76 % UTC.
As to “1075604 (antisense kA*kT*kA*dA*dT*dT*dA*dA*dG*d[5mC]*dT*dA*dT*k[5mC]*kA*k[5mC]) [compound 1075604]”, the “YAP1 (% UTC)” value under setting [5] is 81 % UTC.
As to “1074796 (k[5mC]*kT*k[5mC]*d[5mC]*dA*dA*dA*dT*d[5mC]*dA*dA*dT*dG*kT*kG*k[5mC]; antisense) [compound 1074796]”, the “YAP1 (% UTC)” value under setting [6] turned out to be 22 % UTC.
